# Where two headings read alike, the source gives them in different places.
# Assays:
# [1] = tested on: HBV wild type and drug resistant strains; assay: HepG2.2.15 HBV assay; format: cell-based; settings: Hepatitis B virus, HepG2.2.15, read-out: EC50, inhibition of intracellular HBV replication
# Description: Selected compounds were evaluated in in vitro cell-based HepG2.2.15 HBV assay.
# Antiviral analysis. For the antiviral analyses, confluent cultures of 2.2.1.5 cells were maintained on 96-well flat-bottomed tissue culture plates in RPMI1640 medium with 2% fetal bovine serum. Cultures (6 per each test concentration on two replicate plates) were treated with 9 consecutive daily doses of the test compounds. Medium was changed daily with fresh test compounds. HBV nucleic acid and protein levels were measured 24 hours after the last treatment. Extracellular (virion) HBV DNA levels were assessed by quantitative blot hybridization. Intracellular HBV DNA levels were measured by quantitative Southern blot hybridization.
# [2] = tested on: Human Respiratory Syncytial Virus (RSV); assay: RSV infectivity, plaque assay; format: cell-based; settings: human lung epithelial cells, RSV 0.5 MOI, 24 h post-infection
# Description: (A) RSV infectivity in untreated (UT) and SMNH-treated cells. Human lung epithelial cells were infected with RSV (0.5 MOI) in the absence (DMSO only) or presence of various SMNH compounds (1 μM). At 24 h post-infection, the medium supernatant was collected and the viral titer in the supernatant was assayed by plaque assay analysis using CV-1 cell monolayer, 100% RSV infection represents viral titer from cells incubated with DMSO only (UT cells). The values represent mean±S.D. for three independent determinations. S.D. is shown as error bars.
# (B) A typical plaque assay showing RSV infectivty in UT and SMNH-treated cells. Culture supernatant from RSV infected cells (+/− SMNH) was added to CV-1 cells at a dilution of […]. Plaques were observed and quantitated on methylcellulose after crystal violet staining.
# [3] = tested on: HCV replicon AVA5 (sub-genomic (CON1), genotype 1b); assay: Primary anti-HCV assay, replicon cell line AVA5; format: cell-based; settings: 3-day assay
# Description: Antiviral activity against HCV was assessed in a 3-day assay (Okuse, et al., 2005; Antiviral. Res. 65:23; Korba, et al., 2008, Antiviral Res. 77:56) using the stably-expressing HCV replicon cell line, AVA5 (sub-genomic (CON1), genotype 1b) (Blight, et al., 2000; Science 290:1972) maintained as sub-confluent cultures on 96-well plates. Antiviral activity was determined by blot hybridization analysis of intracellular HCV RNA (normalized to the level of cellular B-actin RNA in each culture sample). Cytotoxicity was assessed by neutral red dye uptake in cultures maintained in parallel plates.
# EC50, EC90, and CC50 values were calculated by linear regression analysis (MS EXCEL®, QuattroPro®) using data combined from all treated cultures Korba & Gerin, 1992, Antivir. Res. 19:55; Okuse, et al., 2005, Antivir. Res. 65:23). Standard deviations for EC50 and EC90 values are calculated from the standard errors generated by the regression analyses, EC50 and EC90 are drug concentrations at which a 2-fold, or a 10-fold depression of intracellular HCV RNA (relative to the average levels in untreated cultures), respectively was observed. […] Recombinant human interferon 2b (PBL laboratories, Inc.) is used as an assay control.
# [4] = tested on: IRF3-luciferase reporter gene (activation of NOD2); assay: IRF3-luciferase reporter induction in HLE A549 cells endogenously expressing NOD2; format: cell-based, human; settings: for Fold induction of IRF3 luciferase activity: 1 µM; for fold induction at 1 µM: Homo sapiens, A549, 12 h
# Description: In the primary assays, di- and trinucleotide compounds were tested for the induction of IRF3 expression in HLE A549 cells, which are known to express NOD2.
# HLE cells normally endogenously express NOD2. To determine if short oligonucleotide compounds activate NOD2, HLE cells transfected with IRF3 plasmid were employed. IRF3-luciferase transfected cells were incubated with either DMSO only (UT) or test compounds (1 μM). Following 12 h incubation, Luciferase activity was measured using Dual-Luciferase Reporter Assay System (Promega) according to the manufacturer's protocol. Transection efficiency was normalized by measuring the expression of renilla Luciferase. Luciferase units (i.e., fold induction) were measured by standard methodology.
# [5] = In vitro cytotoxicity, MTT assay; format: cell-based; settings: cattle (MDBK), African green monkey (Vero), human (HFF)
# Description: Compounds 5 and 6k have excellent safety profile with CC50>1000 micromolar in a number of cell lines. Standard MTT assays were performed in 96-well plates using the Promega CellTiter96 Non-radioactive Cell Proliferation Assay Kit in conjunction with a 96-well Plate Reader (ThermoMax, Molecular devices), and MDBK, Vero, and HFF cell lines (obtained from ATCC). Several controls were employed including the nucleoside analogs 3TC, AZT, and ddC, as well as, media without drugs. SDS was used as a positive cytotoxic control. The compounds were tested in triplicate at concentrations of 100, 300, and 1000 μM. Following a 24-hour incubation of cells with the test substance, the MTT assay was carried out.
# [6] = tested on: HCV replicon H/FL-Neo (genotype 1a (H77), full length construct); assay: Secondary anti-HCV assay, replicon H/FL-Neo; format: cell-based; settings: Hepatitis C virus
# Source text: This assay assesses activity against additional genotypes using the format described for the primary assay. Activity against the genotype 1b HCV was included for comparison. A replicon cell line containing H/FL-Neo (genotype 1a (H77), full length construct) (Blight, et al., 2003, J. Virol. 77:3181) was used.
# [7] = Weight change and apparent toxicity in orally treated HBV transgenic mice; format: in vivo
# Description: Compound 6k was evaluated for anti-HBV activity in the transgenic mouse model of HBV infection. Male transgenic mouse infected with HBV, with age ranging from 78 to 108 days were used. Compound 6k was initially evaluated at a single dose of 300 mg/kg, administered daily for 14 days by oral gavage. The compounds were administered in citric acid and adefovir dipivoxil was used as a positive control. A control group which received vehicle was used a negative control. Following the treatment, mice were sacrificed and liver tissue analyzed for HBV DNA using Southern blot analysis. The data was statistically evaluated using Kruskall-Wallis non-parametric ANOVA.
# (a) Male and female transgenic mice (founder 1.3.32) were infected with human hepatitis B virus. Following infection, animals were orally administered Compound 6k, or a placebo of 0.05 M citric acid, pH 2.0 once daily for 14 days. Dosage was 300 mg/kg/d for Compound 6k. The positive control, ADV, was administered at 10 mg/kg/d.
# Statistical significance is indicated as *P≦0.05, **P≦0.01, ***P≦0.001 compared to placebo vehicle.
# [8] = 1 μM, 12 h, HLE A549 cells, SMNH treated vs. untreated cells
Structure (SMILES),EC50 [1] [µM],% inhibition of RSV at 1 μM ([2]; 1 µM) [%],"EC50 ([3]; Hepatitis C virus, Ava5, 72 h) [µM]","Fold induction of IRF3 luciferase activity [4, 8] [fold]","fold induction at 1 µM ([4]; 1 μM, 12 h, HLE A549 cells, SMNH treated vs. untreated cells, read-out: Fold induction of IRF3 luciferase activity)",CC50 at 24 h [5] [µM],"inhibition at 1 µM ([2]; human respiratory syncytial virus, Epithelial cell, 24 h) [%]",EC50 [6] [µM],EC90 [6] [µM],"EC90, 10-fold depression of intracellular HCV RNA [3]","fold induction at 1 µM ([4]; read-out: Fold induction of IRF3 luciferase activity, 1 μM, 12 h, HLE A549 cells, SMNH treated vs. untreated cells)","% weight change ± sd ([7]; 300 mg/kg/d, oral, once daily 14 days) [%]","apparent toxicity ([7]; high doses employed, oral once daily 14 days)","CC50 at 24 h ([5]; MTT, 24-hour incubation, tested at 100, 300, and 1000 μM, read-out: CC50) [µM]"
"CO[C@H]1C(OP(=O)(S)OC[C@H]2O[C@@H](n3cnc4c(N)ncnc43)CC2O)[C@@H](CO)O[C@H]1n1ccc(=O)[nH]c1=O (stereo partly shown) [Compound 5, 3-dApsU2′-OMe]",0.3 to 2,82,~3,25,15 to 20,> 1000,–,–,–,–,–,–,–,–
CO[C@H]1C(OP(=O)(OC[C@H]2O[C@@H](n3cnc4c(N)ncnc43)CC2O)SCOC(=O)OC(C)C)[C@@H](CO)O[C@H]1n1ccc(=O)[nH]c1=O (stereo partly shown) [Compound 6k],0.3 to 2,–,–,22,–,–,60 to 80,1,~6,about 8 micromolar,15 to 20,4.3 ± 1.8,no apparent toxicity,> 1000
